Laboratory results: patent US20250195485A1, “PROPIONIC ACID DERIVATIVE AND MEDICAL USE THEREOF” (Xizang Haisco Pharmaceutical Co., Ltd., priority 2021, published 2025)

Assays:
integrin α4β7 = target: T1, integrin α4β7 (Homo sapiens, UniProt P13612+P26010); test: Integrin α4β7-mediated cell adhesion assay (RPM18866 cells on MAdCAM-1); type: cell-based; settings: for IC50: RPMI-8866 cells adhering to MAdCAM-1; for α4β1/α4β7: selectivity ratio of α4β1 IC50 to α4β7 IC50 in cell adhesion
T1 sequence (P13612 34-1032): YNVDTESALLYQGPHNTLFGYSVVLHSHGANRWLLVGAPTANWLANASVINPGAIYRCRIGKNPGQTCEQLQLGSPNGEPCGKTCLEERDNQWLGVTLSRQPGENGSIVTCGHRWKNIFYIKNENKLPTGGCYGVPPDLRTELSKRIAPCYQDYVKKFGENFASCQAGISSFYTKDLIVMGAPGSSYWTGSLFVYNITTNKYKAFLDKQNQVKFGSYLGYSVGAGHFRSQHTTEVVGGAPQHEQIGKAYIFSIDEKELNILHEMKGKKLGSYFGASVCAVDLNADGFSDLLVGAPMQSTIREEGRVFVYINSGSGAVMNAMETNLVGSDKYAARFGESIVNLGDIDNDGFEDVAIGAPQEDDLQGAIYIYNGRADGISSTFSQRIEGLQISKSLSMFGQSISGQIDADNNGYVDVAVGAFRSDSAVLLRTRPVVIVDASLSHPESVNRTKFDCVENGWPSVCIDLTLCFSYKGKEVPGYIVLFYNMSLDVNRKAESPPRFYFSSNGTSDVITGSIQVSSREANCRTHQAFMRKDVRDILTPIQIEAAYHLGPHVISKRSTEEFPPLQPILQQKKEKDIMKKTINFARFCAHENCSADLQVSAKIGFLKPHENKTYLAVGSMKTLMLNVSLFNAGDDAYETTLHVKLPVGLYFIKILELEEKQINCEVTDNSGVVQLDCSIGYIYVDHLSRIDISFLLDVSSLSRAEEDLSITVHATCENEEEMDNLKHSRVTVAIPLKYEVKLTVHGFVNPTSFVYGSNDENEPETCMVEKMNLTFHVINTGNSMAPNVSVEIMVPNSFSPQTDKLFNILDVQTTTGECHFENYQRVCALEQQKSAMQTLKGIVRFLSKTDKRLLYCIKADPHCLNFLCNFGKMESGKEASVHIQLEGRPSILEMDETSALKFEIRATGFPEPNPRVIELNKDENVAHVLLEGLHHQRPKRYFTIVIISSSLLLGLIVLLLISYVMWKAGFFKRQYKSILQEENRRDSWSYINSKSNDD
T1 sequence (P26010 20-798): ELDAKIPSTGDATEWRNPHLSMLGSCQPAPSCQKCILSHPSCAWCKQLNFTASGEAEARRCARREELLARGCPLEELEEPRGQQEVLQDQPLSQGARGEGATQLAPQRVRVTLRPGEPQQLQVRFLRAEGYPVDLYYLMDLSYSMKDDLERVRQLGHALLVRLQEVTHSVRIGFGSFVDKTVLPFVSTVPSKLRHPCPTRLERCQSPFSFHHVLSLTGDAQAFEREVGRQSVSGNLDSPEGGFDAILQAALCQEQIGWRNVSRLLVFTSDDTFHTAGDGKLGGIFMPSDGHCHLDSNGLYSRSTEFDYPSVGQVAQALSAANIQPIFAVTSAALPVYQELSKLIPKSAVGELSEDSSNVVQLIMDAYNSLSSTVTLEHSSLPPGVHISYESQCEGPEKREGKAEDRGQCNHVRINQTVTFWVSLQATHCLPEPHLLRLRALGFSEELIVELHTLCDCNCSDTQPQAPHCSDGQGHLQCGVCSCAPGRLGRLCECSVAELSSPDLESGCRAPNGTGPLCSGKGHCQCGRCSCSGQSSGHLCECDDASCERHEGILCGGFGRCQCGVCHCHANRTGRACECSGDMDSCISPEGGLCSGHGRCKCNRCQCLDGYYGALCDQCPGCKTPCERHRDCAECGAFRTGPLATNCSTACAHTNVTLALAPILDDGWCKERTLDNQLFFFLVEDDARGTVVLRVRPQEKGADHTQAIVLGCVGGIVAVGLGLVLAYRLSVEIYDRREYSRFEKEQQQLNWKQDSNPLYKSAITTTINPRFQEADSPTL
Experimental: MAdCAM-1 was formulated with TBS buffer to a final concentration of 2 μg/ml, 50 μl of the solution was transferred to a 96-well plate, and the plate was coated with same at 4° C. overnight. The plate was washed with TBS buffer three times, then 150 μl of a blocking solution (TBS buffer containing 1% BSA) was added, and the plate was blocked at 37° C. for 1 h. […] 50 μl of the cell suspension was transferred to a 96-well plate so that the cell density reached 2×10^5 cells/well. Then 1 μl of the compound at different concentrations or DMSO was added and the plate was incubated at 37° C. for 1 h or 2 h. The plate was washed with TBS buffer to remove non-adherent cells. 50 μl of a substrate (4-nitrophenyl-N-acetyl-β-D-glucosaminide) was added and the plate was incubated at 37° C. for 2 h. […] The IC50 value was calculated using GraphPad Prism 6 software.

integrin α4β1 = target: T2, integrin α4β1 (Homo sapiens, UniProt P05556+P13612); test: Integrin α4β1-mediated cell adhesion assay (Jurkat cells on VCAM); type: cell-based; settings: Jurkat cells adhering to VCAM-1
T2 construct: Jurkat cells were collected, washed twice using DPBS buffer; endogenous in cells; host or cells: Jurkat cells
T2 sequence (P05556 21-798, one chain of several): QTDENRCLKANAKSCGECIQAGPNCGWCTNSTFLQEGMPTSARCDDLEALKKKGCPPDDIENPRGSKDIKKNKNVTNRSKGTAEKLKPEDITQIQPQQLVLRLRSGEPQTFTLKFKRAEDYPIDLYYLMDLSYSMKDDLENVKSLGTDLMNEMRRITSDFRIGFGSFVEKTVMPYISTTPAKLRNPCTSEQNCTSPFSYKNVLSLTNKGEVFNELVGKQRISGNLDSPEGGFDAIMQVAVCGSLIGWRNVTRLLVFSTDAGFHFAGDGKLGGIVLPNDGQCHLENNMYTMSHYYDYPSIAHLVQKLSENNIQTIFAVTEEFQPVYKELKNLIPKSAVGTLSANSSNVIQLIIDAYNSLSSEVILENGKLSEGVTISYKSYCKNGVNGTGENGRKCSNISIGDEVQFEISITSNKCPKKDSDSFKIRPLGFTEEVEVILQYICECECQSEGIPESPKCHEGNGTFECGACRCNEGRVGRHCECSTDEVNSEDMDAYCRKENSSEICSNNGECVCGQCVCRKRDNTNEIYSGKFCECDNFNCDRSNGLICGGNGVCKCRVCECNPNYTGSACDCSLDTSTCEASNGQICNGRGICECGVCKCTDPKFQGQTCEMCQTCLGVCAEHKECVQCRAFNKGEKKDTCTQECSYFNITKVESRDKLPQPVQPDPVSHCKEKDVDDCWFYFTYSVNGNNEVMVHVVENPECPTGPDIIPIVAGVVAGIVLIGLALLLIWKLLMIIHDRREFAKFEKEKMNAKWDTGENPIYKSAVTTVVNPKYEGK
Experimental: VCAM was formulated into a final concentration of 0.5 μg/ml with a coating buffer, 50 μl of the solution was transferred to a 96-well plate, and the plate was coated with same at 4° C. overnight. The plate was washed with coating buffer three times, then 150 μl of a blocking solution (coating buffer containing 1% BSA) was added, and the plate was blocked at 37° C. for 1 h. […] 50 μl of the cell suspension was transferred to a 96-well plate so that the cell density reached 2×10^5 cells/well. Then 1 μl of the test compound at different concentration or DMSO was added and the plate was incubated at 37° C. for 1 h. The plate was washed with coating buffer to remove non-adherent cells. 50 μl of a substrate (4-nitrophenyl-N-acetyl-β-D-glucosaminide) was added and the plate was incubated at 37° C. for 2 h. […] The […] was calculated using GraphPad Prism 6 software. The results are shown in Table 1. • Coating buffer: DMEM+20 mM HEPES+0.4 mM MnC2 • Action buffer: DMEM+20 mM HEPES+0.1% BSA+0.4 mM MnCl2 • DMEM: dulbecco's modified eagle medium; • HEPES: 2-[4-(2-hydroxyethyl)piperazin-1-yl]ethanesulfonic acid

[1] = Pharmacokinetic test in mice; type: in vivo; settings: male BALB/c mice
Experimental: Experimental animals: male BALB/c mice, 20-25 g, 6 mice/compound. Purchased from Chengdu Ddossy Experimental Animals Co., Ltd.
Test design: on the day of the test, 6 BALB/c mice were randomly grouped according to their body weights. The animals were fasted with water available for 12 to 14 h one day before the administration, and were fed 4 h after the administration.
Before and after the administration, 0.06 mL of blood was taken from the orbit of the animals under isoflurane anesthesia and placed in an EDTAK2 centrifuge tube. The blood was centrifuged at 5000 rpm and 4° C. for 10 min to collect the plasma. The blood collection time points for the intravenous group and intragastric administration group were: 0 min, 5 min, 15 min, 30 min, 1 h, 2 h, 4 h, 6 h, 8 h, and 24 h. Before analysis and detection, all samples were stored at −80° C. The samples were analyzed quantitatively by LC-MS/MS.

Row | IC50 (integrin α4β7) [nM] | IC50 (integrin α4β1) [nM] | α4β1/α4β7 (integrin α4β7) | SMILES | also measured
1 | < 0.5 | 91.1 | 1011.7 | Cc1cc(F)cc(C)c1-c1cc(C(CC(=O)O)NC(=O)C(CC(C)C)n2cc(CCN(C)C)c(C(F)(F)F)cc2=O)cc2c1CCC2 (stereo not shown) [Compound 30-2] | 
2 | < 0.5 | 36.6 | >100 | Cc1cc(F)cc(C)c1-c1cc(C(CC(=O)O)NC(=O)C(CC(C)C)n2cc(CCN(C)C)c(C(F)(F)F)cc2=O)cc2nccn12 (stereo not shown) [Trifluoroacetate of compound 20-2] | 
3 | < 10 |  |  | Cc1cc(C)c(-c2cc(C(CC(=O)O)NC(=O)C(CC(C)C)n3cc(CCN(C)C)c(C(F)(F)F)cc3=O)cn3ccnc23)c(C)c1 (stereo not shown) [Trifluoroacetate of compound 22-2] | 

Continued, molecule first:

Row | SMILES | IC50 (integrin α4β7) [nM] | IC50 (integrin α4β1) [nM] | α4β1/α4β7 (integrin α4β7) | also measured
4 | Cc1ccn(C(CC(C)C)C(=O)NC(CC(=O)O)c2cc(-c3c(C)cccc3C)n3ccnc3c2)c(=O)c1 (stereo not shown) [Compound 9] | < 10 |  |  | 
5 | Cc1cc(-c2c(C)cccc2C)cc(C(CC(=O)O)NC(=O)C(CC(C)C)n2cc(CCN3CC(CF)C3)cc(F)c2=O)c1F (stereo not shown) [Compound 13] | < 10 |  |  | 
6 | C#Cc1ncc(C(CC(=O)O)NC(=O)C(CC(C)C)n2cc(CCN3CC(F)C3)cc(F)c2=O)cc1-c1c(C)cccc1C (stereo not shown) [Compound 14] | < 0.5 | 126 | >500 | 
7 | C#Cc1cc(-c2c(C)cc(F)cc2C)cc(C(CC(=O)O)NC(=O)C(CC(C)C)n2cc(CCN(C)C)c(C(F)(F)F)cc2=O)c1F (stereo not shown) [Compound 26-2] | < 0.5 |  |  | 
8 | Cc1cc(-c2c(C)cc(F)cc2C)cc([C@H](CC(=O)O)NC(=O)[C@H](CC(C)C)n2cc(CCN(C)C)c(C(F)(F)F)cc2=O)c1F [Control compound A, reference compound] |  |  |  | F ([1]; intragastrically 10 mg/kg vs intravenously 1 mg/kg): 28.2%; clearance ([1]; mouse, intravenous, plasma, groups: intravenously 1 mg/kg, intragastrically 10 mg/kg (route for this parameter not stated)): 56 mL/min/kg; AUC ([1]; mouse, plasma, oral absorption results, groups: intravenously 1 mg/kg, intragastrically 10 mg/kg (route for this parameter not stated)): 830 ng·h/mL
